Type in all cases: biochemical
The target in assay [1] is T1, 320 wild-type protein kinases (Homo sapiens, UniProt O14920).
T1 sequence (O14920 1-756): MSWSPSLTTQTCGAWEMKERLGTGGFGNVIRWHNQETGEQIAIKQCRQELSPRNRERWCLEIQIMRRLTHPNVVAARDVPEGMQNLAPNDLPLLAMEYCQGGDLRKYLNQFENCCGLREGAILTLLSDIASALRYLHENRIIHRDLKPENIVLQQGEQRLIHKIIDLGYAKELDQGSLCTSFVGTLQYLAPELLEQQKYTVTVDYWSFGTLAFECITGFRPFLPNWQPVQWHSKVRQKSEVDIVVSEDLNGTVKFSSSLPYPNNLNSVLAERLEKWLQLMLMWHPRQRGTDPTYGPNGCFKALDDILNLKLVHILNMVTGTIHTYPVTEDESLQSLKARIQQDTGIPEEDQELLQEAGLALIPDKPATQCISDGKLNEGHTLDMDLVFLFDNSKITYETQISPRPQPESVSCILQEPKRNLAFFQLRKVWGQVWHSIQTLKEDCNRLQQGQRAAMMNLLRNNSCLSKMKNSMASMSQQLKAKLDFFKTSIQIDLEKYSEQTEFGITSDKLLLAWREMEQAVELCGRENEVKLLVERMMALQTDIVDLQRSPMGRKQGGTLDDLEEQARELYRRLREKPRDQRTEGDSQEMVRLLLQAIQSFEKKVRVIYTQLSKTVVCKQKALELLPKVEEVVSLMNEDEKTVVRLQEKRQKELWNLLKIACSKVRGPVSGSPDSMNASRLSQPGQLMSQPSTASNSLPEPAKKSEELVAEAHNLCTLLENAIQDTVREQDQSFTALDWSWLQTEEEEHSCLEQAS
Conditions: IKK-beta, singlicate. An excerpt: (§1) Table S4. Profiling of two compounds at two concentrations against 320 wild-type protein kinases; singlicate measurement; Residual activities (% of control).

Assay [2] deals with 320 wild-type protein kinases (Homo sapiens, UniProt O75914). Conditions: singlicate.
320 wild-type protein kinases (Homo sapiens, UniProt O75914), sequence (O75914 whole entry): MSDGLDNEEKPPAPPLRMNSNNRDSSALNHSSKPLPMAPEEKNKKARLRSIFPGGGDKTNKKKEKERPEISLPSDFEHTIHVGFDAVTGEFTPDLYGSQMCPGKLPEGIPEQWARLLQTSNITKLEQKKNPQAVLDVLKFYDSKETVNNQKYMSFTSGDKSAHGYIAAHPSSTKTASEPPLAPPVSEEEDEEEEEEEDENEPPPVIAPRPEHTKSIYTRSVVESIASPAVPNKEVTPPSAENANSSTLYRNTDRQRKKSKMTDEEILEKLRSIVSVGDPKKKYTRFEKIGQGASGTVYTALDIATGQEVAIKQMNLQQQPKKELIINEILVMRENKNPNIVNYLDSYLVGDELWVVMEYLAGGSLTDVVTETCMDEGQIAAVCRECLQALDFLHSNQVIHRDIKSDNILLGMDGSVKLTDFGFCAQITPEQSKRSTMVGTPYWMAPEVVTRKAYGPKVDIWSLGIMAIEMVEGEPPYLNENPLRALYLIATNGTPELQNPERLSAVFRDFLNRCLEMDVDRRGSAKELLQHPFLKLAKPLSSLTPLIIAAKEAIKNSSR
Source text: as §1

Assay [3] concerns the target 320 wild-type protein kinases (Homo sapiens, UniProt P05129). To be noted: PKC-gamma, singlicate.
Source text: as §1

In assay [4] the target is 320 wild-type protein kinases (Homo sapiens, UniProt P32298). Conditions: singlicate.
320 wild-type protein kinases (Homo sapiens, UniProt P32298), sequence (P32298 whole entry): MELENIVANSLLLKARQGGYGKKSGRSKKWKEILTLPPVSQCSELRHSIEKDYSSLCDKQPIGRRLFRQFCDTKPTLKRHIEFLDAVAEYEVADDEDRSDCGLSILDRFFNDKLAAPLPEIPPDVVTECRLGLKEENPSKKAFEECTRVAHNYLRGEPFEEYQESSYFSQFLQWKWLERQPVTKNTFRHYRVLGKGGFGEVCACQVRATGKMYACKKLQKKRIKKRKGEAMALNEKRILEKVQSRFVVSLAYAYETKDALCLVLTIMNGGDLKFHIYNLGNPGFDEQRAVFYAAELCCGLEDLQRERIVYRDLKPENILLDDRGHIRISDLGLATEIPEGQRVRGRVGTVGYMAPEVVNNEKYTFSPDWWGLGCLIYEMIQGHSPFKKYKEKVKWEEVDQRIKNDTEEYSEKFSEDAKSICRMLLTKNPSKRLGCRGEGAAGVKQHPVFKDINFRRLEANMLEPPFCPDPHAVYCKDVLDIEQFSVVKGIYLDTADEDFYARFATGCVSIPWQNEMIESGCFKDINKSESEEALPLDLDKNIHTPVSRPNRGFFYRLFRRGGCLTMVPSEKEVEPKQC
Source text: as §1

Assay [5] concerns the target T2, 320 wild-type protein kinases (Homo sapiens, UniProt P36888).
T2 sequence (P36888 27-993): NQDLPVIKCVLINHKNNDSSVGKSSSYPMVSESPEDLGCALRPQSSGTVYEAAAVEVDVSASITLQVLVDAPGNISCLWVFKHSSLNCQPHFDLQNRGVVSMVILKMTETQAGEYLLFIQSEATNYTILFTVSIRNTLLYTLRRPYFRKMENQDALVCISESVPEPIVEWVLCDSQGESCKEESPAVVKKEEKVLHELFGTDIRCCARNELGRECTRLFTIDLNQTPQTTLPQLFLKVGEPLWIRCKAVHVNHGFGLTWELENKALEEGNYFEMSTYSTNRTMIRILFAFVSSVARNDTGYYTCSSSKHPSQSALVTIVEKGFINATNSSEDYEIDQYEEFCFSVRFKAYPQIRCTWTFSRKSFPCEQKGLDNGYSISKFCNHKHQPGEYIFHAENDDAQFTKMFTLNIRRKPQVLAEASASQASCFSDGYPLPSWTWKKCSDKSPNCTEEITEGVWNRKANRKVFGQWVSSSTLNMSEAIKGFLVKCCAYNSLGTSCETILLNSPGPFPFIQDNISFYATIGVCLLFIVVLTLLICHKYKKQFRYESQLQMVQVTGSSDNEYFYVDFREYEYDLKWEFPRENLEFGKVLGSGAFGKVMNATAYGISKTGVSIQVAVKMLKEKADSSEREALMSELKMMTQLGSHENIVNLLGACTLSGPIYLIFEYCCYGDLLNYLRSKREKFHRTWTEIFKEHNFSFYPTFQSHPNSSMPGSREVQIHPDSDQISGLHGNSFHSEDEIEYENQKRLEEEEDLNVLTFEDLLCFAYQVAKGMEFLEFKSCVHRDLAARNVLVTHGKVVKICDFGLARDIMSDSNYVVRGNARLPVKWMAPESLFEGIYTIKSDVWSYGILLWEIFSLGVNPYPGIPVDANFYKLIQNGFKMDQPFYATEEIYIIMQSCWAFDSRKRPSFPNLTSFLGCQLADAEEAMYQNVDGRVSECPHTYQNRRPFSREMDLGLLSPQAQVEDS
Conditions: singlicate.
Source text: as §1

Assay [6] deals with T3, 320 wild-type protein kinases (Homo sapiens, UniProt Q8IWQ3).
T3 sequence (Q8IWQ3 1-736): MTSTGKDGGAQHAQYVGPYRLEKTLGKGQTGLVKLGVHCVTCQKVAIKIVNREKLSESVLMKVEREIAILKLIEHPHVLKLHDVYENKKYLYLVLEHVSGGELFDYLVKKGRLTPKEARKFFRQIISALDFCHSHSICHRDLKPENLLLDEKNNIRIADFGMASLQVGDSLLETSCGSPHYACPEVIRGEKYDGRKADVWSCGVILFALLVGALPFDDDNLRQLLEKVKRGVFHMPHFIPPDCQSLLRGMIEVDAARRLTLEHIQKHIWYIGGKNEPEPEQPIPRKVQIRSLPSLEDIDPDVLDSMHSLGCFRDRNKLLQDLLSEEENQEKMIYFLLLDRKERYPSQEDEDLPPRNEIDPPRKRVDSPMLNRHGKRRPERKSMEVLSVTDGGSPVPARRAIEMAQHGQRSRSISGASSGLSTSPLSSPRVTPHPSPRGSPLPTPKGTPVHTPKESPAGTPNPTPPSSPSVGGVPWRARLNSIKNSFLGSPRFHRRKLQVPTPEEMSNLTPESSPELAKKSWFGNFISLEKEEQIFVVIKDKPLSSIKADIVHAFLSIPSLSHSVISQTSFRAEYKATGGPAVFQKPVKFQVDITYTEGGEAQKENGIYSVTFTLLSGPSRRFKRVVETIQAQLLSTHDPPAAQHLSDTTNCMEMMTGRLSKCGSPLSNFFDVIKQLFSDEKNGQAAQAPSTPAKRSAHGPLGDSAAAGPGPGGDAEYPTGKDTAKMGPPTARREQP
To be noted: singlicate.
Source text: as §1

Where two headings read alike, the source gives them in different places.

As to `C#Cc1cc(Nc2ncnc3cc(OC)c(OC)cc23)ccc1Cl` [Compound 45], the Residual activity in assay [1] (1.0E-06 M) is 107 % of control; in assay [1] (1.0E-07 M), 121 % of control; in assay [2] (PAK3, 1.0E-06 M) it was 92 % of control; in assay [2] (PAK3, 1.0E-07 M), 98 % of control; in assay [3] (1.0E-06 M), 88 % of control; in assay [3] (1.0E-07 M) it was 87 % of control. The Residual activity in assay [4] (GRK4, 1.0E-06 M) was 126 % of control; in assay [4] (GRK4, 1.0E-07 M) it was 121 % of control; in assay [5] (FLT3, 1.0E-06 M), 56 % of control; in assay [5] (FLT3, 1.0E-07 M), 88 % of control; in assay [6] (BRSK2, 1.0E-06 M), 101 % of control; in assay [6] (BRSK2, 1.0E-07 M), 106 % of control.
Take `C#Cc1cc(Nc2ncnc3cc(I)ccc23)ccc1Cl` [Compound 41]: the Residual activity is given as 124 % of control in assay [1] (1.0E-06 M); 199 % of control in assay [1] (1.0E-07 M); 75 % of control in assay [2] (PAK3, 1.0E-06 M); 96 % of control in assay [2] (PAK3, 1.0E-07 M); 89 % of control in assay [3] (1.0E-06 M); 99 % of control in assay [3] (1.0E-07 M). Besides, the Residual activity in assay [4] (GRK4, 1.0E-06 M) was 113 % of control; in assay [4] (GRK4, 1.0E-07 M), 128 % of control; in assay [5] (FLT3, 1.0E-06 M), 94 % of control; in assay [5] (FLT3, 1.0E-07 M) it was 95 % of control; in assay [6] (BRSK2, 1.0E-06 M), 100 % of control; in assay [6] (BRSK2, 1.0E-07 M), 98 % of control.

Source of the values: paper PMC9329436, “Optimization of the 4-anilinoquin(az)oline scaffold as epidermal growth factor receptor (EGFR) inhibitors for chordoma utilizing a toxicology profiling assay platform” (Scientific Reports, 2022).
